Test results reported in ChEMBL document CHEMBL1143523, “Semi-synthesis and biological evaluation of analogues of UK-2A, a novel antifungal antibiotic from Streptomyces sp. 517-02” (2005).

Assays:
Type in all cases: functional
[1] = system: Saccharomyces cerevisiae; test: Zone of inhibition for Saccharomyces cerevisiae IFO 0203 at 0.25 ug/disc by conventional paper disk method
[2] = system: Saccharomyces cerevisiae; test: Zone of inhibition for Saccharomyces cerevisiae IFO 0203 at 0.125 ug/disc by conventional paper disk method
[3] = system: Saccharomyces cerevisiae; test: Zone of inhibition for Saccharomyces cerevisiae IFO 0203 at 0.025 ug/disc by conventional paper disk method
[4] = system: Saccharomyces cerevisiae; test: Zone of inhibition for Saccharomyces cerevisiae IFO 0203 at 0.05 ug/disc by conventional paper disk method

| SMILES | zone of inhibition at 0.25 µg/disc [1] [mm] | zone of inhibition at 0.125 µg/disc [2] [mm] | zone of inhibition at 0.025 µg/disc [3] [mm] | zone of inhibition at 0.05 µg/disc [4] [mm] |
| --- | --- | --- | --- | --- |
| COc1ccc(O)c(C(=O)N[C@H]2COC(=O)[C@H](Cc3ccccc3)[C@@H](OC(=O)C(C)C)[C@H](C)OC2=O)n1 | 27 | 24 | 16 | 19 |
| CCOC(=O)COc1c(OC)ccnc1C(=O)N[C@H]1COC(=O)[C@H](Cc2ccccc2)[C@@H](OC(=O)C(C)C)[C@H](C)OC1=O | 0 | 0 | 0 | 0 |
| CC(C)C(=O)O[C@H]1[C@H](C)OC(=O)[C@@H](NC(=O)c2ccccc2O)COC(=O)[C@@H]1Cc1ccccc1 | 12 | 11 | 8 | 8 |
| COc1ccnc(C(=O)N[C@H]2COC(=O)[C@H](Cc3ccc(N)cc3)[C@@H](OC(=O)C(C)C)[C@H](C)OC2=O)c1O | 10 | 8 | 0 | 0 |
| CC(C)C(=O)O[C@H]1[C@H](C)OC(=O)[C@@H](NC(=O)c2cccc(N(C)C)c2O)COC(=O)[C@@H]1Cc1ccccc1 | 14 | 12 | 8 | 8 |
| COc1ccnc(C(=O)N[C@H]2COC(=O)[C@H](Cc3ccc([N+](=O)[O-])cc3)[C@@H](OC(=O)C(C)C)[C@H](C)OC2=O)c1O | 20 | 18 | 12 | 15 |
| COc1ccnc(C(=O)N[C@H]2COC(=O)[C@H](Cc3ccccc3)[C@@H](OC(=O)C(C)C)[C@H](C)OC2=O)c1OC(=O)CCCCCC(=O)O | 24 | 21 | 12 | 16 |
| COc1ccnc(C(=O)N[C@H]2COC(=O)[C@H](Cc3ccccc3)[C@@H](OC(=O)C(C)C)[C@H](C)OC2=O)c1OC(=O)CCCCCC(=O)Oc1ccccc1 | 18 | 15 | 8 | 10 |
| COc1ccnc(C(=O)N[C@H]2COC(=O)[C@H](Cc3ccccc3)[C@@H](OC(=O)C(C)C)[C@H](C)OC2=O)c1OC | 0 | 0 | 0 | 0 |
| COc1ccnc(C(=O)N[C@H]2COC(=O)[C@H](Cc3ccc(N(C)C)cc3)[C@@H](OC(=O)C(C)C)[C@H](C)OC2=O)c1O | 19 | 15 | 0 | 11 |
| COc1ccnc(C(=O)N[C@H]2COC(=O)[C@H](Cc3ccccc3)[C@@H](OC(=O)C(C)C)[C@H](C)OC2=O)c1O | 26 | 26 | 19 | 22 |
| CC(C)C(=O)O[C@H]1[C@H](C)OC(=O)[C@@H](NC(=O)c2nc3ccccc3nc2O)COC(=O)[C@@H]1Cc1ccccc1 | 24 | 20 | 14 | 18 |
| COc1ccnc(C(=O)N[C@H]2COC(=O)[C@H](Cc3ccc(NC=O)cc3)[C@@H](OC(=O)C(C)C)[C@H](C)OC2=O)c1O | 0 | 0 | 0 | 0 |
| CC(C)C(=O)O[C@H]1[C@H](C)OC(=O)[C@@H](NC(=O)c2cccc(NC=O)c2O)COC(=O)[C@@H]1Cc1ccccc1 | 17 | 16 | 8 | 12 |
| CC(C)C(=O)O[C@H]1[C@H](C)OC(=O)[C@@H](NC(=O)c2cccnc2O)COC(=O)[C@@H]1Cc1ccccc1 | 17 | 16 | 0 | 12 |
| COc1ccnc(C(=O)N[C@H]2COC(=O)[C@H](Cc3ccccc3)[C@@H](OC(=O)C(C)C)[C@H](C)OC2=O)c1OC(C)=O | 18 | 14 | 10 | 12 |
| CCCC[C@H]1C(=O)O[C@H](C)[C@H](NC(=O)c2cccc(NC=O)c2O)C(=O)O[C@@H](C)[C@@H]1OC(=O)CC(C)C [ANTIMYCIN A3] | 26 | 19 | 16 | 18 |
